# Measured values as given in patent US7745636B2, “Hepatitis C virus inhibitors” (Bristol-Myers Squibb Company, priority 2006, dated 2010).
# System: HCV 1b-377-neo replicon cells
# Test: HCV Replicon assay, HCV 1b-377-neo replicon cells
# Assay type: cell-based, HCV 1b genotype
# Conditions: Hepatitis C virus, Table 2, read-out: Range (EC50 against HCV 1b)
row,SMILES,EC50
1,"CCN(CC)[C@@H](C(=O)N1CCC[C@H]1c1ncc(-c2cnc(-c3ccc(-c4[nH]c([C@@H]5CCCN5C(=O)[C@@H](c5ccccc5)N(CC)CC)nc4C(F)(F)F)cc3)nc2)[nH]1)c1ccccc1 [Example J47, (1R)-2-((2S)-2-(5-(4-(5-(2-((2S)-1-((2R)-2-(diethylamino)-2-phenylacetyl)-2-pyrrolidinyl)-1H-imidazol-5-yl)-2-pyrimidinyl)phenyl)-4-(trifluoromethyl)-1H-imidazol-2-yl)-1-pyrrolidinyl)-N,N-diethyl-2-oxo-1-phenylethanamine]",0.001 to 0.999 nM
2,"CN(C)[C@@H](C(=O)N1CCC[C@H]1c1ncc(-c2ccc(-c3ccc(-c4cnc([C@@H]5CCCN5C(=O)[C@@H](c5ccccc5)N(C)C)[nH]4)nn3)nn2)[nH]1)c1ccccc1 [Example 153c-1, (1R,1′R)-2,2′-(3,3′-bipyridazine-6,6′-diylbis(1H-imidazole-5,2-diyl(2S)-2,1-pyrrolidinediyl))bis(N, N-dimethyl-2-oxo-1-phenylethanamine)]",1 to 99 nM
3,"Cc1cc(-c2cnc([C@@H]3CCCN3C(=O)[C@@H](c3ccccc3)N(C)C)[nH]2)ccc1-c1ccc(-c2cnc([C@@H]3CCCN3C(=O)[C@@H](c3ccccc3)N(C)C)[nH]2)cn1 [Example 136, (1R)-2-((2S)-2-(5-(6-(4-(2-((2S)-1-((2R)-2-(dimethylamino)-2-phenylacetyl)-2-pyrrolidinyl)-1H-imidazol-5-yl)-2-methylphenyl)-3-pyridinyl)-1H-imidazol-2-yl)-1-pyrrolidinyl)-N,N-dimethyl-2-oxo-1-phenylethanamine]",0.001 to 0.999 nM
4,"COC(=O)N[C@@H](C(=O)N[C@@H](C)c1ncc(-c2ccc(-c3ncc(-c4cnc([C@@H]5CCCN5C(=O)[C@H](NC(=O)OC)c5ccccc5)[nH]4)cn3)cc2)[nH]1)c1ccccc1 [Example 152j-15, methyl ((1R)-2-((2S)-2-(5-(2-(4-(2-((1S)-1-(((2R)-2-((methoxycarbonyl)amino)-2-phenylace-tyl)amino)eth-yl)-1H-imidazol-5-yl)phenyl)-5-pyrimidinyl)-1H-imidazol-2-yl)-1-pyrrolidinyl)-2-oxo-1-phenylethyl)carbamate]",0.001 to 0.999 nM
5,"COC(=O)N[C@@H](C(=O)N1CCC[C@H]1c1ncc(-c2ccc(-c3ccc(-c4cnc([C@@H]5CCCN5C(=O)[C@H](NC(=O)OC)c5ccccc5)[nH]4)nc3)cc2)[nH]1)c1ccccc1 [Example 147, methyl((1R)-2-((2S)-2-(5-(5-(4-(2-((2S)-1-((2R)-2-((methoxycarbonyl)amino)-2-phenylacetyl)-2-pyrrolidinyl)-1H-imidazol-5-yl)phenyl)-2-pyridinyl)-1H-imidazol-2-yl)-1-pyrrolidinyl)-2-oxo-1-phenylethyl)carbamate]",0.001 to 0.999 nM
6,COC(=O)N[C@H](C(=O)N1CCCC1c1ncc(-c2cc(C)c(-c3c(C)cc(-c4cnc([C@@H]5CCCN5C(=O)[C@@H](NC(=O)OC)C(C)C)[nH]4)cc3C)c(C)c2)[nH]1)C(C)C (stereo partly shown) [Example F71],0.001 to 0.999 nM
7,"COC(=O)N[C@H](C(=O)N1CCC[C@H]1c1nc(-c2cnc(-c3ccc(-c4cnc([C@@H]5CCCN5C(=O)[C@@H](NC(=O)OC)C(C)C)[nH]4)c(F)c3)nc2)c[nH]1)C(C)C [Example D68, methyl ((1S)-1-(((2S)-2-(5-(2-fluoro-4-(5-(2-((2S)-1-((2S)-2-((methoxycarbonyl)amino)-3-methylbutanoyl)-2-pyrrolidinyl)-1H-imidazol-5-yl)-2-pyrimidinyl)phenyl)-1H-imidazol-2-yl)-1-pyrrolidinyl)carbonyl)-2-methylpropyl) carbamate]",0.001 to 0.999 nM
8,"COC(=O)N[C@@H](C(=O)N1CCC[C@H]1c1ncc(-c2ccc(-c3ccc(-c4cnc([C@@H]5CCCN5C(=O)Cc5cccnc5)[nH]4)cc3C)cc2)[nH]1)c1ccccc1 [Example 127, methyl ((1R)-2-((2S)-2-(5-(2′-methyl-4′-(2-((2S)-1-(3-pyridinylacetyl)-2-pyrrolidinyl)-1H-imidazol-5-yl)-4-biphenylyl)-1H-imidazol-2-yl)-1-pyrrolidinyl)-2-oxo-1-phenylethyl)carbamate]",0.001 to 0.999 nM
9,"COC(=O)N[C@@H](C(=O)N1CCC[C@H]1c1ncc(-c2ccc(-c3ccc(-c4cnc([C@@H]5CCCN5C(=O)[C@H](NC(=O)OC)c5ccccc5)[nH]4)cc3CN(C)C)cc2)[nH]1)c1ccccc1 [Example M121, dimethyl((2-((dimethylamino)methyl)-4,4′-biphenyldiyl)bis(1H-imidazole-5,2-diyl(2S)-2,1-pyrrolidinediyl((1R)-2-oxo-1-phenyl-2,1-ethanediyl)))biscarbamate]",100 to 999 nM
10,"COC(=O)N[C@@H](C(=O)N1CCC[C@H]1c1nc(-c2cnc(-c3ccc(-c4cnc([C@@H]5CCCN5C(=O)[C@H](NC(=O)OC)c5ccccc5)[nH]4)c(F)c3)nc2)c[nH]1)c1ccccc1 [Example D69, methyl ((1R)-2-((2S)-2-(5-(2-(3-fluoro-4-(2-((2S)-1-((2R)-2-((methoxycarbonyl)amino)-2-phenylacetyl)-2-pyrrolidinyl)-1H-imidazol-5-yl)phenyl)-5-pyrimidinyl)-1H-imidazol-2-yl)-1-pyrrolidinyl)-2-oxo-1-phenylethyl) carbamate]",0.001 to 0.999 nM
11,"COC(=O)N[C@@H](C(=O)N(C)[C@@H](C)c1ncc(-c2ccc(-c3ccc(-c4cnc([C@@H]5CCCN5C(=O)[C@@H](c5ccccc5)N(C)C)[nH]4)cc3)cc2)[nH]1)c1ccccc1 [Example 131.1-1, methyl((1R)-2-(((1S)-1-(5-(4′-(2-((2S)-1-((2R)-2-(dimethylamino)-2-phenylacetyl)-2-pyrrolidinyl)-1H-imidazol-5-yl)-4-biphenylyl)-1H-imidazol-2-yl)ethyl) (methyl)amino)-2-oxo-1-phenylethyl)carbamate]",0.001 to 0.999 nM
12,"COC(=O)N[C@@H](C(=O)N[C@@H](C)c1ncc(-c2ccc(-c3ccc(-c4cnc([C@@H]5CCCN5C(=O)[C@H](NC(=O)OC)c5ccccc5)[nH]4)cn3)cc2)[nH]1)c1ccccc1 [Example 152j-12, methyl ((1R)-2-((2S)-2-(5-(6-(4-(2-((1S)-1-(((2R)-2-((methoxycarobnyl)amino)-2-phenylace-tyl)amino)eth-yl)-1H-imidazol-5-yl)phenyl)-3-pyridinyl)-1H-imidazol-2-yl)-1-pyrrolidinyl)-2-oxo-1-phenylethyl)carbamate]",0.001 to 0.999 nM
13,"COC(=O)N[C@@H](C(=O)N1CCC[C@H]1c1ncc(-c2ccc(-c3ncc(-c4cnc([C@@H]5CCCN5C(=O)Cc5cccnc5)[nH]4)cn3)cc2)[nH]1)c1ccccc1 [Example 152j-3, methyl ((1R)-2-oxo-1-phenyl-2-((2S)-2-(5-(4-(5-(2-((2S)-1-(3-pyridinylacetyl)-2-pyrrolidinyl)-1H-imidazol-5-yl)-2-pyrimidinyl)phenyl)-1H-imidazol-2-yl)-1-pyrrolidinyl)ethyl)car bamate]",0.001 to 0.999 nM
14,"COC(=O)N[C@H](C(=O)N1[C@H](c2ncc(-c3ccc(-c4ccc(-c5cnc([C@@H]6C[C@@H]7C[C@@H]7N6C(=O)[C@@H](NC(=O)OC)C(C)C)[nH]5)cc4)cc3)[nH]2)C[C@@H]2C[C@@H]21)C(C)C [Example M122, methyl((1S)-1-(((1S,3S,5S)-3-(5-(4′-(2-((1S,3S,5S)-2-((2S)-2-((methoxycarbonyl)amino)-3-methylbutanoyl)-2-azabicyclo[3.1.0]hex-3-yl)-1H-imidazol-5-yl)-4-biphenylyl)-1H-imidazol-2-yl)-2-azabicyclo[3.1.0]hex-2-yl)carbonyl)-2-methylpropyl)carbamate]",1 to 99 nM

# Same assay, conditions: Table 2, read-out: Range (EC50 against HCV 1b)
row,SMILES,EC50
1,COC(=O)N[C@H](C(=O)N1CCC[C@H]1c1ncc(-c2ccc(-c3ccc(-c4cnc([C@@H]5CCCN5C(=O)CNC(C)C)[nH]4)cc3)cc2)[nH]1)C(C)C [LS25],0.001 to 0.999 nM
2,O=C1N[C@H](C(=O)N2CCC[C@H]2c2ncc(-c3ccc(-c4ccc(-c5cnc([C@@H]6CCCN6C(=O)[C@@H]6CCOC(=O)N6)[nH]5)cc4)cc3)[nH]2)CCO1 [LS11],1000 to 10000 nM
